Laboratory results taken from the supplement of paper PMC11451515.

Tested on: P12-Ichikawa
Assay: cell viability relative to DMSO control; higher = less cytotoxic
Settings: 48 h
How it was run: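 Cells were incubated for 48 h at 37°C before CellTiter-Glo One luminescence was read. The cells were NOMO1 or SEM (500 cells/well) or P12-Ichikawa (1000 cells/well) leukemia cells, adapted for at least four passages in each medium and seeded in 1536-well plates (5 μl). Dosing used library compounds in DMSO applied by pin over 11 threefold points, 47 μM to 0.79 nM. Viability is the per-plate percentage of DMSO wells, with cell-free wells as background.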

[1] = HPLM + 10% dialyzed FBS, 0.000781 µM
[2] = HPLM + 10% dialyzed FBS, 0.00234 µM
[3] = HPLM + 10% dialyzed FBS, 0.00702 µM
[4] = HPLM + 10% dialyzed FBS, 0.0211 µM
[5] = HPLM + 10% dialyzed FBS, 0.0632 µM
[6] = HPLM + 10% dialyzed FBS, 0.19 µM
[7] = HPLM + 10% dialyzed FBS, 0.569 µM
[8] = HPLM + 10% dialyzed FBS, 1.71 µM
[9] = HPLM + 10% dialyzed FBS, 5.12 µM
[10] = HPLM + 10% dialyzed FBS, 15.4 µM
[11] = HPLM + 10% dialyzed FBS, 46.1 µM
[12] = RPMI 5 mM glucose + 10% FBS, 0.000781 µM
[13] = RPMI 5 mM glucose + 10% FBS, 0.00234 µM
[14] = RPMI 5 mM glucose + 10% FBS, 0.00702 µM
[15] = RPMI 5 mM glucose + 10% FBS, 0.0211 µM
[16] = RPMI 5 mM glucose + 10% FBS, 0.0632 µM
[17] = RPMI 5 mM glucose + 10% FBS, 0.19 µM
[18] = RPMI 5 mM glucose + 10% FBS, 0.569 µM
[19] = RPMI 5 mM glucose + 10% FBS, 1.71 µM
[20] = RPMI 5 mM glucose + 10% FBS, 5.12 µM
[21] = RPMI 5 mM glucose + 10% FBS, 15.4 µM
[22] = RPMI 5 mM glucose + 10% FBS, 46.1 µM
[23] = RPMI 5 mM glucose + 10% dialyzed FBS, 0.000781 µM
[24] = RPMI 5 mM glucose + 10% dialyzed FBS, 0.00234 µM
[25] = RPMI 5 mM glucose + 10% dialyzed FBS, 0.00702 µM
[26] = RPMI 5 mM glucose + 10% dialyzed FBS, 0.0211 µM
[27] = RPMI 5 mM glucose + 10% dialyzed FBS, 0.0632 µM
[28] = RPMI 5 mM glucose + 10% dialyzed FBS, 0.19 µM
[29] = RPMI 5 mM glucose + 10% dialyzed FBS, 0.569 µM
[30] = RPMI 5 mM glucose + 10% dialyzed FBS, 1.71 µM
[31] = RPMI 5 mM glucose + 10% dialyzed FBS, 5.12 µM
[32] = RPMI 5 mM glucose + 10% dialyzed FBS, 15.4 µM
[33] = RPMI 5 mM glucose + 10% dialyzed FBS, 46.1 µM

Structure (SMILES)	cell viability [1] [%]	cell viability [2] [%]	cell viability [3] [%]	cell viability [4] [%]	cell viability [5] [%]	cell viability [6] [%]	cell viability [7] [%]	cell viability [8] [%]	cell viability [9] [%]	cell viability [10] [%]	cell viability [11] [%]	cell viability [12] [%]	cell viability [13] [%]	cell viability [14] [%]	cell viability [15] [%]	cell viability [16] [%]	cell viability [17] [%]	cell viability [18] [%]	cell viability [19] [%]	cell viability [20] [%]	cell viability [21] [%]	cell viability [22] [%]	cell viability [23] [%]	cell viability [24] [%]	cell viability [25] [%]	cell viability [26] [%]	cell viability [27] [%]	cell viability [28] [%]	cell viability [29] [%]	cell viability [30] [%]	cell viability [31] [%]	cell viability [32] [%]	cell viability [33] [%]
C/C(=N\NC(=S)N1CCC1)c1ccccn1	105	92.4	47.6	29.3	12	8.28	5.61	10.9	8.16	1.94	20.3	110	96.3	57.6	22.7	10.4	8.95	8.33	6.64	5.66	-0.453	9.21	117	107	64.9	29.8	12.9	9.03	6.61	6.04	3.26	-0.0472	8.99
CCN1\C=C(\C(O)=O)C(=O)C2=C1N=C(N3CCNCC3)C(=C2)F	75.4	89.2	85.8	94.9	91.8	93.7	94.1	91.9	91.4	92.2	84.1	72.1	82.1	76	86.3	80.7	81.6	79.4	78.4	85.7	83.6	81	74.1	82.6	77.7	90.3	84.1	76.9	88.7	83.3	77.2	83.4	95.1
O=[N+]([O-])c1ncc[nH]1	93.7	88	88.2	83.4	97	102	88.4	81	84.5	75.4	80.5	88	91	84.6	84.8	91.6	86.9	78	74.1	81	70.5	78.8	88.7	86.1	82.7	98.4	104	99.9	65.7	78	98	71	80.5
COc1cc(Nc2c(C#N)cnc3cc(OCCCN4CCN(C)CC4)c(OC)cc23)c(Cl)cc1Cl	112	112	110	110	117	120	120	97.6	42.4	4.36	4.46	103	123	112	115	121	122	122	109	54.2	6.74	5.61	111	110	126	128	124	127	129	105	64.5	7.05	5.93
CC[C@]12CC[C@H]3[C@@H](CCC/4=C/C(=O)CC[C@H]34)[C@@H]1CC[C@@]2(O)C#C	94.2	85.6	83.8	87.2	104	89.2	68.9	79.3	85.5	82.6	90.5	86.3	88.3	87.2	90.4	85.1	83.9	75.1	88	86.1	79.6	83.7	83.3	79.5	88.3	79.3	86.7	78	81.3	77	83.1	73	79.7
CC(=O)OC[C@H]1O[C@@H]([S-])[C@H](OC(C)=O)[C@@H](OC(C)=O)[C@@H]1OC(C)=O.CCP(CC)CC.[Au+]	89.2	88.1	91.2	99.2	94.1	102	98.6	94.5	71.7	6.24	6.03	86.8	89.2	90.6	93.1	82.2	90.6	93.4	89.3	14.8	5.1	4.94	87.8	84.1	81.6	92.7	79.7	87.6	91.9	78.2	6.72	5.18	5.56
N#CC(c1ccnc(NCCc2cccnc2)n1)c1nc2ccccc2s1 (stereo not drawn)	115	128	120	127	127	134	131	121	141	141	118												122	136	122	145	142	152	151	148	140	133	120
CCc1cc(C(N)=S)ccn1	116	115	120	126	124	122	127	114	104	93.7	80.2	108	121	118	115	122	134	119	128	114	103	104	111	124	119	120	121	129	122	120	104	95.9	86.5
